These results are taken from patent US11583502B2, “Pharmaceutical compositions comprising a thyroid hormone beta agonist, method of use and method making thereof” (GANNEX PHARMA CO., LTD., priority 2020, dated 2023).

Data set [1] in a line: Solubility of the compound of Formula (I) in media without surfactant. It is filed as physicochemical. The text has this:
The compound of Formula (I), however, is a lipophilic drug that is highly insoluble in water. […] The very low solubility limits its use in research and development as a drug candidate.
For drugs with poor solubility, in vitro dissolution evaluation is a simple and effective method for predicting and comparing dissolution in vivo. In vitro dissolution evaluation is also an important criterion for screening prescription drugs for quality control. […] Therefore, in order to completely dissolve the compound in a conventional 900 ml medium for a 10 mg/unit dose formulation, it is necessary to increase the solubility of the compound to at least 11.11 μg/ml. It would be difficult to achieve such a target with conventional solubilization technology.

Data set [2] is classed as physicochemical. To be noted: 3.5 hours.

Usually solubility stands for the concentration that dissolves in the medium under given conditions. The low end stands for little dissolved substance, the high end for much dissolved substance. Consider `Cc1cc(OC[P@@]2(=O)OCC[C@@H](c3cccc(Cl)c3)O2)cc(C)c1Cc1ccc(O)c(C(C)C)c1` [compound of Formula (I)], for which the solubility in data set [1] (aqueous buffer, hydrochloric acid solution, buffer, and water without surfactant at 37° C. and pH 1.0˜9.0) is below 0.5 ng/mL; in data set [1] (medium containing no surfactant), below 0.5 ng/mL. In addition, in data set [2], the “drug undergoing degradation reactions” value stood at 10.2%.
